Assay results as given in patent US11485713B2, “Androgen receptor modulators and methods for their use” (ESSA Pharma, Inc., priority 2018, dated 2022).

What was measured:
LNCaP ARE-Luc = assay: Luciferase assay in LNCaP cell lysates (LNCaP ARE-Luc); format: cell-based; details: Homo sapiens, Firefly Luciferase Assay System, read-out: LNCaP ARE-Luc % inhibition IC50 Ranges
Description: Lysates were thawed on ice then collected into V-bottom 96-well tissue culture plates. Lysates were centrifuged at 4° C. for 5 minutes at 4000 rpm. To measure luminescence of LNCaP cell lysates the Firefly Luciferase Assay System (Promega) was employed, according to manufacturer's protocol. Relative luminescence units (RLU) in cell lysates were detected for 10 seconds using Promega GoMax-Multi Detection Luminometer (Promega).
Statistical analyses were performed using GraphPad Prism (Version 6.01 for Windows; La Jolla, Calif., USA). Comparisons between treatment and control groups were compared using Two-Way ANOVA with post-hoc Dunnett's and Tukey's tests. Differences were considered statistically significant at P values less than 0.05. Densitometric quantification of relative AR levels was determined by Image.

[1] = Microsomal stability assay, HLM; format: in vitro ADME; details: human, pH 7.4, 1 μM test compound, 0.5 mg/mL liver microsomes protein, 37° C., 0-60 min, read-out: HLM +/− NADPH: Clint (μL/min/mg protein)
Text: Microsomal Stability Assay: Microsomal stability assay is a widely used in vitro model to characterize the metabolic conversion by phase I enzymes, such as cytochrome P450 (CYP) enzymes. Since metabolism is known to be highly variable in different species, microsomal stability assay is commonly run in multiple species. Metabolic stability of testing compound can be evaluated using human, rat, mouse, or other animal liver or intestine microsomes to predict intrinsic clearance.
The assay was carried out in 96-well microtiter plates at 37° C. Reaction mixtures (25 μL) contained a final concentration of 1 μM test compound, 0.5 mg/mL liver microsomes protein, and 1 mM NADPH and/or 1 mM UDPGA (with alamethicin) in 100 mM potassium phosphate, pH 7.4 buffer with 3 mM MgCl2. The incubation was done with N=1, but duplicate incubation at each time point can be prepared if necessary. At each of the time points (for example, 0, 15, 30, and 60 minutes), 150 μL of quench solution (100% acetonitrile with 0.1% formic acid) with internal standard was transferred to each well. Besides the zero minute controls, mixtures containing the same components except the NADPH can also be prepared as the negative control. Verapamil was included as a positive control to verify assay performance. Plates were sealed, vortexed, and centrifuged at 4° C. for 15 minutes at 4000 rpm. The supernatant is transferred to fresh plates for LC/MS/MS analysis.
Summarized conditions: [Compound]=1 μM, [LM]=0.5 mg/mL, [NADPH]=1 mM and/or [UDPGA]=1 mM, Buffer=100 mM Potassium Phosphate, pH 7.4 with 3 mM MgCl2, Time=0, 15, 30, and 60 min, and Temperature=37° C.
All samples were analyzed on LC/MS/MS using an AB Sciex API 4000 instrument, coupled to a Shimadzu LC-20AD LC Pump system. Analytical samples were separated using a Waters Atlantis T3 dC18 reverse phase HPLC column (20 mm×2.1 mm) at a flow rate of 0.5 mL/min. The mobile phase consisted of 0.1% formic acid in water (solvent A) and 0.1% formic acid in 100% acetonitrile (solvent B).
The extent of metabolism is calculated as the disappearance of the test compound, compared to the 0-min time incubation. Initial rates are calculated for the compound concentration and used to determine half-life (t½) values and subsequently, the intrinsic clearance (Clint). Clint=(0.693)(1/t½ (min))(g of liver/kg of body weight)(mL incubation/mg of microsomal protein)(45 mg of microsomal protein/g of liver weight)

Compound | IC50 (LNCaP ARE-Luc) [nM] | microsomal CLint at 1 μM [1] [µL/min/mg]
CC(=O)N(CC(=O)COc1ccc(C(C)(C)c2cc(Cl)c(OCCCCl)c(Cl)c2)cc1)S(C)(=O)=O [Compound A104] | ≥ 250 | –
CC(C)(c1ccc(NC(=O)CCNS(C)(=O)=O)cc1)c1cc(Cl)c(OCCCCl)c(Cl)c1 [Compound A45] | ≥ 250 | < 12
COc1cc(OCC(=O)CNS(C)(=O)=O)ccc1C(C)(C)c1ccc(OCCCCl)cc1 [Compound A12] | ≥ 250 | ≥ 48
CS(=O)(=O)NCC(=O)CCOc1ccc(-c2cc(Cl)c(OCCCCl)c(Cl)c2)cc1 [Compound A76] | ≥ 250 | 12 to 48
CN(C)C(=O)NCc1ccc(C(C)(C)c2cc(Cl)c(OCCCCl)c(Cl)c2)cc1 [Compound A47] | ≥ 250 | ≥ 48
CC(C)(c1ccc(OCC(=O)NNS(C)(=O)=O)cc1)c1cc(Cl)c(OCCCCl)c(Cl)c1 [Compound A80] | ≥ 250 | 12 to 48
CC(C)(c1ccc(C(=O)CCCNS(C)(=O)=O)cc1)c1cc(Cl)c(OCCCCl)c(Cl)c1 [Compound A84] | ≥ 250 | 12 to 48
CC(C)(c1ccc(OCC(=O)CS(C)(=O)=O)cc1)c1cc(Cl)c(OC[C@H](O)CCl)c(Cl)c1 [A54(S), (S)-1-(4-(2-(3,5-dichloro-4-(3-chloro-2-hydroxypropoxy)phenyl)propan-2-yl)phenoxy)-3-(methylsulfonyl)propan-2-one] | ≥ 250 | –
CC(C)(c1ccc(CNC(=O)CNS(C)(=O)=O)cc1)c1cc(Cl)c(OCCCCl)c(Cl)c1 [Compound A46, N-(4-(2-(3,5-dichloro-4-(3-chloropropoxy)phenyl)propan-2-yl)benzyl)-2-(methylsulfonamido)acetamide] | ≥ 250 | 12 to 48
CN(CC(=O)COc1ccc(C(C)(C)c2cc(Cl)c(OCCCCl)c(Cl)c2)cc1)S(C)(=O)=O [Compound A69] | ≥ 250 | ≥ 48
CC(C)N(c1ccc(OCC(=O)CNS(C)(=O)=O)cc1)c1cc(Cl)c(OCCCCl)c(Cl)c1 [Compound A70] | ≥ 250 | ≥ 48
CC(C)(c1ccc(OCC(=O)CNS(C)(=O)=O)cc1)c1cc(Cl)c(OCc2ccc(Cl)cc2)c(Cl)c1 [Compound A38] | ≥ 250 | ≥ 48
CC(=O)N(c1ccc(OCC(=O)CNS(C)(=O)=O)cc1)c1cc(Cl)c(OCCCCl)c(Cl)c1 [Compound A71, N-(3,5-dichloro-4-(3-chloropropoxy)phenyl)-N-(4-(3-(methylsulfonamido)-2-oxopropoxy)phenyl)acetamide] | ≥ 250 | ≥ 48
COCC(=O)C(F)(F)Oc1ccc(C(C)(C)c2cc(Cl)c(OCCCCl)c(Cl)c2)cc1 [Compound A100, 1-(4-(2-(3,5-dichloro-4-(3-chloropropoxy)phenyl)propan-2-yl)phenoxy)-1,1-difluoro-3-methoxypropan-2-one] | ≥ 250 | –
CC(C)(c1ccc(OC(F)(F)C(=O)CS(C)(=O)=O)cc1)c1cc(Cl)c(OCCCCl)c(Cl)c1 [Compound A102] | ≥ 250 | –
CCOC(=O)CC(=O)C(F)(F)Oc1ccc(C(C)(C)c2cc(Cl)c(OCCCCl)c(Cl)c2)cc1 [Compound A101] | ≥ 250 | –
CC(C)(c1ccc(OC(F)(F)C(=O)C(N)=O)cc1)c1cc(Cl)c(OCCCCl)c(Cl)c1 [Compound A92] | ≥ 250 | –

Second part, the compound after the results:

IC50 (LNCaP ARE-Luc) [nM] | microsomal CLint at 1 μM [1] [µL/min/mg] | Compound
≥ 250 | ≥ 48 | CC(=O)NCC(=O)COc1ccc(C(C)(C)c2cc(Cl)c(OCCCCl)c(Cl)c2)cc1 [Compound A65]
≥ 250 | ≥ 48 | CC(C)(c1ccc(OCC(=O)CNS(C)(=O)=O)cc1)c1ccc(OCCCCl)cc1Cl [Compound A6]
100 to 250 | ≥ 48 | CC(C)(c1ccc(OCC(=O)CNS(C)(=O)=O)cc1)c1cc(Cl)c(NCCCCl)c(Cl)c1 [Compound A35]
≥ 250 | – | CC(=O)C(=O)Nc1ccc(C(C)(C)c2cc(Cl)c(OCC(C)(O)CCl)c(Cl)c2)cc1 (stereo not shown) [Compound A96]
100 to 250 | ≥ 48 | CS(=O)(=O)NCC(=O)COc1ccc(CCc2cc(Cl)c(OCC(O)CCl)c(Cl)c2)cc1 (stereo not shown) [Compound A75, N-(3-(4-(3,5-dichloro-4-(3-chloro-2-hydroxypropoxy)phenethyl)phenoxy)-2-oxopropyl)methanesulfonamide]
100 to 250 | ≥ 48 | CC(C)(c1ccc(OCC(=O)CNS(C)(=O)=O)c(F)c1)c1cc(Cl)c(OCCCCl)c(Cl)c1 [Compound A48]
≥ 250 | ≥ 48 | CC(C)(c1ccc(OC(F)(F)C(=O)CCNS(C)(=O)=O)cc1)c1cc(Cl)c(OCCCCl)c(Cl)c1 [Compound A94, N-(4-(4-(2-(3,5-dichloro-4-(3-chloropropoxy)phenyl)propan-2-yl)phenoxy)-4,4-difluoro-3-oxobutyl)methanesulfonamide]
≥ 250 | – | CC(O)(CCl)COc1c(Cl)cc(C(C)(C)c2ccc(OCC(=O)CS(C)(=O)=O)cc2)cc1Cl (stereo not shown) [Compound A53, 1-(4-(2-(3,5-dichloro-4-(3-chloro-2-hydroxy-2-methypropoxy)phenyl)propan-2-yl)phenoxy)-3-(methylsulfonyl)propan-2-one]
≥ 250 | ≥ 48 | COc1cc(C(C)(C)c2ccc(OCCCCl)cc2)ccc1OCC(=O)CNS(C)(=O)=O [Compound A11]
≥ 250 | < 12 | CC(C)(NS(C)(=O)=O)C(=O)COc1ccc(C(C)(C)c2cc(Cl)c(OCCCCl)c(Cl)c2)cc1 [Compound A64]
≥ 250 | 12 to 48 | CS(=O)(=O)NCC(=O)COc1ccc(-c2cc(Cl)c(OCCCCl)c(Cl)c2)cc1 [Compound A73, N-(3-((3′,5′-dichloro-4′-(3-chloropropoxy)-[1,1′-biphenyl]-4-yl)oxy)-2-oxopropyl)methanesulfonamide]
≥ 250 | ≥ 48 | CC(C)(c1ccc(OCC(=O)CNS(C)(=O)=O)cc1)c1cc(Cl)c(OCc2ccccc2Cl)c(Cl)c1 [Compound A79]
≥ 250 | ≥ 48 | CC(=O)C(=O)Nc1ccc(C(C)(C)c2cc(Cl)c(OCCCCl)c(Cl)c2)cc1 [Compound A85]
< 100 | – | CC(=O)Oc1ccc(C(C)(C)c2cc(Cl)c(OCCCCl)c(Cl)c2)cc1 [Compound A103]
< 100 | ≥ 48 | CS(=O)(=O)NCC(=O)COc1ccc(C2(c3cc(Cl)c(OCCCCl)c(Cl)c3)COC2)cc1 [Compound A43, N-(3-(4-(3-(3,5-dichloro-4-(3-chloropropoxy)phenyl)oxetan-3-yl)phenoxy)-2-oxopropyl)methanesulfonamide]
≥ 250 | – | CC(=O)COc1ccc(C(C)(C)c2cc(Cl)c(OCCCCl)c(Cl)c2)cc1 [Compound A74, 1-(4-(2-(3,5-dichloro-4-(3-chloropropoxy)phenyl)propan-2-yl)phenoxy)propan-2-one]
≥ 250 | ≥ 48 | CC(C)(c1ccc(OCCCCl)cc1)c1ccc(OCC(=O)CNS(C)(=O)=O)c(C#N)c1 [Compound A15]
100 to 250 | – | CC(C)(c1ccc(OC(F)(F)C(=O)CNS(C)(=O)=O)cc1)c1cc(Cl)c(OCCCCl)c(Cl)c1 [Compound A99, N-(3-(4-(2-(3,5-dichloro-4-(3-chloropropoxy)phenyl)propan-2-yl)phenoxy)-3,3-difluoro-2-oxopropyl)methanesulfonamide]
100 to 250 | ≥ 48 | CN(CCCCl)c1c(Cl)cc(C(C)(C)c2ccc(OCC(=O)CNS(C)(=O)=O)cc2)cc1Cl [Compound A36]
< 100 | ≥ 48 | CC(CCl)COc1c(Cl)cc(C(C)(C)c2ccc(OCC(=O)CNS(C)(=O)=O)cc2)cc1Cl (stereo not shown) [Compound A32]
100 to 250 | – | COC(=O)C(OC)C(O)(O)C(F)(F)Oc1ccc(C(C)(C)c2cc(Cl)c(OCCCCl)c(Cl)c2)cc1 (stereo not shown) [Compound A97]
